# Data taken from US11684614B2, “Formulations of hydroxypyridonate actinide/lanthanide decorporation agents” (priority 2017, dated 2023).
# Several values for one entry are separate records, joined by “and”; a condition that tells them apart may be missing. Identical values can stand only once.
# Assay: Repeated-treatment efficacy for removing an intravenous dose of 238Pu (excretion, tissue retention, clinical observations), female and male arms
# Assay type: in vivo, Swiss-Webster mice
# Conditions: for % Recovered Dose - Feces per Day: male mice, listed as 3,4,3-LI(1,2-HOPO)
# Protocol: The objective of this study was to characterize the efficacy of 3,4,3-L1(1,2-HOPO) at enhancing elimination from an internal plutonium burden in female and male Swiss-Webster mice administered a soluble citrate complex of ^238Pu and treated multiple times, starting at 24 hours after the exposure. Efficacy was evaluated by comparing the tissue contents, urinary and fecal excretions of ^238Pu in treated animals versus untreated animals.
# The medical countermeasure 3,4,3-L1(1,2-HOPO) was administered parenterally (ip) or orally (po) via consecutive injections or gavages (six daily or twelve twice daily) starting at 24 hours post contamination at the following four selected doses: 30 μmol/kg ip, 150 μmol/kg po, 300 μmol/kg po, and 600 μmol/kg po (equivalent to respective approximate human doses range of […], using the accepted conversion system of mouse doses into human equivalent doses—HED—based on body surface area). Oral doses also included the permeability enhancer selected during formulation development work.
# • Challenge isotope: ^238Pu • Challenge dose: 25 nCi (i.e., approximately 0.8 μCi/kg) • Route of contamination: Intravenous (iv) tail-vein • Route of treatment: Intraperitoneal Injection (ip) or Oral (po) • Frequency of treatment: Multiple (once- or twice-daily for 6 days) doses, starting 24 hr postcontamination • Treatment dose calculation: Dose calculations (mg/kg or μmol/kg) for the decorporation agent were based on the individual body weight measured after contamination. • Study Duration: 11 days, in-life
# c. […] Test article and control dose formulations were prepared within 1 day of dose administration, by weighing out the appropriate amount of test article, dispersing in vehicle. For ip solutions, the test article was used alone, while for oral suspensions, a mixture of test article and excipient (90:10, w:w) was used. The pH was adjusted to 7.0-7.4 for ip administration and 5.0-5.5 for oral administration with sterile NaOH. Dose formulations were prepared at room temperature and filter-sterilized. • Storage: 2-8° C.; refrigerated; protected from light. • Characterization: The concentration of each test article formulation was verified by high-performance liquid chromatography-mass spectrometry. • Test Article Handling: Test, reference, and control article formulations were handled with the use of eye protection, gloves, and a protective laboratory coat. • Correct Dose Assurance: The test article was weighed with calibrated balances. The administration of each dose formulation was properly documented, and the amount administered to each animal recorded.
# e. Experimental Procedures (In-Life Evaluations and Euthanasia) • Contamination: Single administration by intravenous (iv) tail-vein injection (0.2 mL injection volume) under isoflurane anesthesia. Three standard 0.2 mL injections were performed into polyethylene bottles and pre-loaded with aliquots of concentrated nitric acid on each injection day. Six female and six male mice were culled for necropsy 1 hr post-contamination and were used as standards. A11 standards were processed and counted together with the final samples to allow verification of the contamination dose. • Dose Administration: Single administration by intraperitoneal injection (ip) or oral gavage (po) under isoflurane anesthesia. • Mortality/Morbidity: Assessed at least once daily. • Clinical Observations: Recorded once daily (4 hr post-dose on day of treatment), or more often as clinical signs warranted. […]
smiles,measurement,setting,value
"O=C(NCCCN(CCCCN(CCCNC(=O)c1cccc(=O)n1O)C(=O)c1cccc(=O)n1O)C(=O)c1cccc(=O)n1O)c1cccc(=O)n1O [3,4,3-L1(1,2-HOPO)]",% Recovered Dose - Feces per Day,"group I, feces day 1, Day 11 necropsy",9.44% and 11.73% and 10.15% and 5.92% and 9.00% and 6.11% and 8.55% and 9.19%
same,% Recovered Dose - Feces per Day,"group I, feces day 3, Day 11 necropsy",7.33% and 7.00% and 5.92% and 6.28% and 9.54% and 7.12% and 7.60% and 4.73%
same,% Recovered Dose - Feces per Day,"group I, feces day 4, Day 11 necropsy",4.73% and 4.29% and 4.45% and 3.39% and 5.21% and 4.16% and 3.65% and 3.13%
same,% Recovered Dose - Feces per Day,"group I, feces day 5, Day 11 necropsy",2.15% and 1.67% and 2.13% and 2.90% and 1.73% and 2.06% and 1.56% and 2.26%
same,% Recovered Dose - Feces per Day,"group I, feces day 6, Day 11 necropsy",1.96% and 1.64% and 1.89% and 2.15% and 2.00% and 1.56% and 1.92% and 1.66%
same,% Recovered Dose - Feces per Day,"group I, feces day 7, Day 11 necropsy",1.48% and 2.52% and 0.83% and 1.51% and 0.94% and 1.29% and 1.15% and 1.02%
same,% Recovered Dose - Feces per Day,"group I, feces day 8, Day 11 necropsy",0.86% and 0.84% and 0.55% and 0.76% and 1.22% and 0.87%
same,% Recovered Dose - Feces per Day,"group I, feces day 9, Day 11 necropsy",0.53% and 0.71% and 0.43% and 0.64% and 0.57% and 0.47% and 0.49%
same,% Recovered Dose - Feces per Day,"group I, feces day 10, Day 11 necropsy",0.46% and 0.52% and 0.43% and 0.45% and 0.40% and 0.47% and 0.36%
same,% Recovered Dose - Feces per Day,"group I, feces day 11, Day 11 necropsy",0.47% and 0.38% and 0.37% and 0.43% and 0.48% and 0.44% and 0.50%
same,% Recovered Dose - Feces per Day,"group L, feces day 2, Day 11 necropsy",9.49% and 10.37% and 11.59% and 15.06% and 13.00% and 13.15% and 16.38% and 8.84%
same,% Recovered Dose - Feces per Day,"group L, feces day 3, Day 11 necropsy",2.02% and 3.23% and 3.48% and 4.47% and 2.87% and 3.37% and 4.43% and 2.71%
same,% Recovered Dose - Feces per Day,"group L, feces day 4, Day 11 necropsy",1.98% and 2.69% and 3.71% and 6.81% and 3.67% and 4.04% and 3.55% and 3.76%
same,% Recovered Dose - Feces per Day,"group L, feces day 5, Day 11 necropsy",1.04% and 1.47% and 2.57% and 2.42% and 1.75% and 1.82% and 2.26% and 1.72%
same,% Recovered Dose - Feces per Day,"group L, feces day 6, Day 11 necropsy",3.32% and 1.94% and 2.97% and 2.78% and 2.36% and 3.15% and 2.15% and 2.74%
same,% Recovered Dose - Feces per Day,"group L, feces day 7, Day 11 necropsy",1.56% and 1.72% and 1.53% and 1.45% and 2.10% and 1.44% and 1.80% and 1.29%
same,% Recovered Dose - Feces per Day,"group L, feces day 8, Day 11 necropsy",1.03% and 1.27% and 1.54% and 1.58% and 1.33% and 1.26% and 1.23% and 0.92%
same,% Recovered Dose - Feces per Day,"group L, feces day 9, Day 11 necropsy",0.88% and 0.94% and 0.96% and 0.57% and 1.17% and 1.08% and 0.78%
same,% Recovered Dose - Feces per Day,"group L, feces day 10, Day 11 necropsy",0.60% and 0.98% and 0.96% and 0.65% and 0.99% and 1.01% and 1.02% and 0.90%
same,% Recovered Dose - Feces per Day,"group L, feces day 11, Day 11 necropsy",0.63% and 0.89% and 0.79% and 0.66% and 0.87% and 0.84%
same,% Recovered Dose - Feces per Day,"group M, feces day 2, Day 11 necropsy",16.84% and 15.20% and 15.54% and 13.29% and 15.04% and 19.29% and 14.53% and 19.54%
same,% Recovered Dose - Feces per Day,"group M, feces day 3, Day 11 necropsy",4.32% and 6.13% and 4.17% and 2.65% and 4.16% and 6.33% and 4.24% and 3.82%
same,% Recovered Dose - Feces per Day,"group M, feces day 4, Day 11 necropsy",3.42% and 4.94% and 4.01% and 4.02% and 6.06% and 4.40% and 3.22% and 2.93%
same,% Recovered Dose - Feces per Day,"group M, feces day 5, Day 11 necropsy",1.00% and 2.50% and 1.52% and 1.62% and 1.76% and 1.90% and 1.20% and 1.08%
same,% Recovered Dose - Feces per Day,"group M, feces day 6, Day 11 necropsy",10.71% and 2.32% and 2.47% and 1.70% and 3.63% and 2.41% and 1.58% and 1.99%
same,% Recovered Dose - Feces per Day,"group M, feces day 7, Day 11 necropsy",5.02% and 2.31% and 1.09% and 1.15% and 1.51% and 1.35% and 0.86% and 1.01%
same,% Recovered Dose - Feces per Day,"group M, feces day 8, Day 11 necropsy",1.81% and 1.55% and 1.22% and 0.94% and 1.24% and 2.07% and 0.87% and 1.10%
same,% Recovered Dose - Feces per Day,"group M, feces day 9, Day 11 necropsy",1.01% and 1.12% and 0.73% and 0.57% and 0.96% and 0.64% and 0.76%
same,% Recovered Dose - Feces per Day,"group M, feces day 10, Day 11 necropsy",0.48% and 0.47% and 0.92% and 0.59% and 0.65% and 1.22% and 0.76% and 0.85%
same,% Recovered Dose - Feces per Day,"group M, feces day 11, Day 11 necropsy",0.57% and 0.46% and 0.82% and 0.41% and 0.70% and 1.12% and 0.68% and 1.01%
same,increase in total 238Pu excretion compared to the control groups,"male, 6 daily oral treatments, 600 μmol/kg, 11 days post-contamination",up to 156%
same,tissue content of 238Pu compared to saline control group,"male, all analyzed tissues, all dosing regimens",large reductions
same,full body content of 238Pu compared to saline control groups,"male, all treated groups",significant reductions
same,decrease in body burden compared to the control groups,"male, once-daily oral 600 μmol/kg, 11 days post-contamination",up to 48%
same,decorporation efficacy relative to parenteral DTPA,"male, oral once-daily 300 and 600 μmol/kg",equivalent to that of parenteral treatment with DTPA
same,238Pu elimination enhancement,"male, oral twice-daily 150 and 300 μmol/kg or once-daily 300 and 600 μmol/kg, 7 days post-contamination",significant
